Assay [1] concerns Trace amine-associated receptor 1 (Mus musculus), Q923Y8 [T268M]. Put plainly: Activation of mouse TAAR1 transmembrane domain 6 Thr268(6.55)Met mutant expressed in HEK293 cells assessed as stimulation of cAMP production at 0.0001 to 100 uM after 1 hr by chemiluminescent assay relative to beta-phenylethylamine. The class given is functional, cell-based. (In general: Changes in cAMP serve as a functional read-out for many G protein-coupled receptors.)

Assay [2] deals with Trace amine-associated receptor 1 (Mus musculus), Q923Y8 [D102A]. As to the kind of experiment: Activation of mouse TAAR1 Asp102(3.32)Ala mutant expressed in HEK293 cells assessed as stimulation of cAMP production at 0.0001 to 100 uM after 1 hr by chemiluminescent assay. The class given is functional, cell-based.
For assay [3], the species on record is Mus musculus. As to the kind of experiment: Selectivity ratio of EC50 for mouse wild type TAAR1 to EC50 for mouse TAAR1 transmembrane domain 6 Thr268(6.55)Met mutant.
The test system of assay [4] is Trace amine-associated receptor 1 (Mus musculus), Q923Y8 [Y287N]. Put plainly: Activation of mouse TAAR1 transmembrane domain 7 Tyr287(7.39)Asn mutant expressed in HEK293 cells assessed as stimulation of cAMP production at 0.0001 to 100 uM after 1 hr by chemiluminescent assay relative to beta-phenylethylamine. The class given is functional, cell-based.
The target in assay [5] is Trace amine-associated receptor 1 (Rattus norvegicus) (UniProt Q923Y9). As to the kind of experiment: Activation of rat wild type TAAR1 expressed in HEK293 cells assessed as stimulation of cAMP production at 0.0001 to 100 uM after 1 hr by chemiluminescent assay relative to beta-phenylethylamine. The class given is functional, cell-based.
Assay [6] relates to Trace amine-associated receptor 1 (Rattus norvegicus), Q923Y9 [N287Y]. As to the kind of experiment: Activation of rat TAAR1 transmembrane domain 7 Asn287(7.39)Tyr mutant expressed in HEK293 cells assessed as stimulation of cAMP production at 0.0001 to 100 uM after 1 hr by chemiluminescent assay relative to beta-phenylethylamine. The class given is functional, cell-based.
Assay [7] addresses Trace amine-associated receptor 1 (Mus musculus, UniProt Q923Y8, Y287N). Put plainly: Activation of mouse TAAR1 transmembrane domain 7 Tyr287(7.39)Asn mutant expressed in HEK293 cells assessed as stimulation of cAMP production after 1 hr by chemiluminescent assay. Type of assay: functional, cell-based.
Assay [8] addresses Trace amine-associated receptor 1 (Rattus norvegicus, UniProt Q923Y9, N287Y). As to the kind of experiment: Activation of rat TAAR1 transmembrane domain 7 Asn287(7.39)Tyr mutant expressed in HEK293 cells assessed as stimulation of cAMP production after 1 hr by chemiluminescent assay. Type of assay: functional, cell-based.
The test system of assay [9] is Trace amine-associated receptor 1 (Rattus norvegicus), Q923Y9 [M268T]. Put plainly: Activation of rat TAAR1 transmembrane domain 6 Met268(6.55)Thr mutant expressed in HEK293 cells assessed as stimulation of cAMP production at 0.0001 to 100 uM after 1 hr by chemiluminescent assay relative to beta-phenylethylamine. The class given is functional, cell-based.
The target in assay [10] is Trace amine-associated receptor 1 (Rattus norvegicus, UniProt Q923Y9, M268T). As to the kind of experiment: Activation of rat TAAR1 transmembrane domain 6 Met268(6.55)Thr mutant expressed in HEK293 cells assessed as stimulation of cAMP production after 1 hr by chemiluminescent assay. The class given is functional, cell-based.
The target in assay [11] is Trace amine-associated receptor 1 (Mus musculus, UniProt Q923Y8). As to the kind of experiment: Activation of mouse wild type TAAR1 expressed in HEK293 cells assessed as stimulation of cAMP production after 1 hr by chemiluminescent assay. Type of assay: functional, cell-based.
Assay [12] addresses Trace amine-associated receptor 1 (Mus musculus, UniProt Q923Y8, T268M). Put plainly: Activation of mouse TAAR1 transmembrane domain 6 Thr268(6.55)Met mutant expressed in HEK293 cells assessed as stimulation of cAMP production after 1 hr by chemiluminescent assay. Type of assay: functional, cell-based.
Assay [13] is filed under the species Rattus norvegicus. As to the kind of experiment: Selectivity ratio of EC50 for rat TAAR1 transmembrane domain 6 Met268(6.55)Thr mutant to EC50 for rat wild type TAAR1.
Assay [14] addresses Trace amine-associated receptor 1 (Mus musculus) (UniProt Q923Y8). As to the kind of experiment: Activation of mouse wild type TAAR1 expressed in HEK293 cells assessed as stimulation of cAMP production at 0.0001 to 100 uM after 1 hr by chemiluminescent assay relative to beta-phenylethylamine. The class given is functional, cell-based.
The subject of assay [15] is Trace amine-associated receptor 1 (Rattus norvegicus), Q923Y9 [D102A]. Put plainly: Activation of rat TAAR1 Asp102(3.32)Ala mutant expressed in HEK293 cells assessed as stimulation of cAMP production at 0.0001 to 100 uM after 1 hr by chemiluminescent assay relative to control. Type of assay: functional, cell-based.
The target in assay [16] is Trace amine-associated receptor 1 (Rattus norvegicus, UniProt Q923Y9). Put plainly: Activation of rat wild type TAAR1 expressed in HEK293 cells assessed as stimulation of cAMP production after 1 hr by chemiluminescent assay. Type of assay: functional, cell-based.
Assay [17] deals with Trace amine-associated receptor 1 (Mus musculus), Q923Y8 [Y287N]. Put plainly: Activation of mouse TAAR1 transmembrane domain 7 Tyr287(7.39)Asn mutant expressed in HEK293 cells assessed as stimulation of cAMP production at 0.0001 to 100 uM after 1 hr by chemiluminescent assay relative to control. Type of assay: functional, cell-based.
The subject of assay [18] is Trace amine-associated receptor 1 (Rattus norvegicus), Q923Y9 [M268T]. Put plainly: Activation of rat TAAR1 transmembrane domain 6 Met268(6.55)Thr mutant expressed in HEK293 cells assessed as stimulation of cAMP production at 0.0001 to 100 uM after 1 hr by chemiluminescent assay relative to control. Type of assay: functional, cell-based.
The target in assay [19] is Trace amine-associated receptor 1 (Rattus norvegicus) (UniProt Q923Y9). Put plainly: Activation of rat wild type TAAR1 expressed in HEK293 cells assessed as stimulation of cAMP production at 0.0001 to 100 uM after 1 hr by chemiluminescent assay relative to control. Type of assay: functional, cell-based.
In assay [20] the test system is Trace amine-associated receptor 1 (Rattus norvegicus), Q923Y9 [N287Y]. As to the kind of experiment: Activation of rat TAAR1 transmembrane domain 7 Asn287(7.39)Tyr mutant expressed in HEK293 cells assessed as stimulation of cAMP production at 0.0001 to 100 uM after 1 hr by chemiluminescent assay relative to control. The class given is functional, cell-based.
Assay [21] has as its target Trace amine-associated receptor 1 (Mus musculus) (UniProt Q923Y8). Put plainly: Activation of mouse wild type TAAR1 expressed in HEK293 cells assessed as stimulation of cAMP production at 0.0001 to 100 uM after 1 hr by chemiluminescent assay relative to control. The class given is functional, cell-based.
Assay [22] concerns Trace amine-associated receptor 1 (Mus musculus), Q923Y8 [T268M]. As to the kind of experiment: Activation of mouse TAAR1 transmembrane domain 6 Thr268(6.55)Met mutant expressed in HEK293 cells assessed as stimulation of cAMP production at 0.0001 to 100 uM after 1 hr by chemiluminescent assay relative to control. Type of assay: functional, cell-based.

pEC50: −log10 of the molar value. Calls of active or inactive are those of the source. The rule behind the calls is not given here.

Trace amine-associated receptor 1 (Mus musculus), Q923Y8 [T268M], sequence (Q923Y8 whole entry T268M, the tested form may be a part): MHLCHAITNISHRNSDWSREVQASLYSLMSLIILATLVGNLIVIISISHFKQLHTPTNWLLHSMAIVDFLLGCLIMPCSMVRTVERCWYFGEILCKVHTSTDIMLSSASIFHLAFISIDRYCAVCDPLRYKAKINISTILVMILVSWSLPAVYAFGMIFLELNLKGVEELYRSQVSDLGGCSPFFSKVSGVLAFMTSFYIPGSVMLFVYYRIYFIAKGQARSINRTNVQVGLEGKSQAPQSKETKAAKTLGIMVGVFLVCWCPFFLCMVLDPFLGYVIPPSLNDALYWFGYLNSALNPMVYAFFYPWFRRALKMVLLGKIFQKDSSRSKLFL
Trace amine-associated receptor 1 (Mus musculus, UniProt Q923Y8, T268M), sequence (Q923Y8 whole entry T268M, the tested form may be a part): as above
Trace amine-associated receptor 1 (Rattus norvegicus), Q923Y9 [N287Y], sequence (Q923Y9 whole entry N287Y, the tested form may be a part): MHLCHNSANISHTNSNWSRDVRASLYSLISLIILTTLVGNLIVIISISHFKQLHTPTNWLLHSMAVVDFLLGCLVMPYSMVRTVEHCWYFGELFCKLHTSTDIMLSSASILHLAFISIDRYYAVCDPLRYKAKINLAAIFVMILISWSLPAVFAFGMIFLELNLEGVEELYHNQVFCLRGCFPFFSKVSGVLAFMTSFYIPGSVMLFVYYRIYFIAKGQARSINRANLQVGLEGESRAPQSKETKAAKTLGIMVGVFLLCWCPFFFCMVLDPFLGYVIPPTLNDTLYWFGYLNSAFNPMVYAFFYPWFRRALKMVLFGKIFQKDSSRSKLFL
Trace amine-associated receptor 1 (Rattus norvegicus, UniProt Q923Y9, N287Y), sequence (Q923Y9 whole entry N287Y, the tested form may be a part): as above
Trace amine-associated receptor 1 (Mus musculus), Q923Y8 [D102A], sequence (Q923Y8 whole entry D102A, the tested form may be a part): as the sequence (Q923Y8 whole entry T268M, the tested form may be a part) above, with D102A, M268T counted along it
Trace amine-associated receptor 1 (Mus musculus), Q923Y8 [Y287N], sequence (Q923Y8 whole entry Y287N, the tested form may be a part): as the sequence (Q923Y8 whole entry T268M, the tested form may be a part) above, with M268T, Y287N counted along it
Trace amine-associated receptor 1 (Mus musculus, UniProt Q923Y8, Y287N), sequence (Q923Y8 whole entry Y287N, the tested form may be a part): as the sequence (Q923Y8 whole entry T268M, the tested form may be a part) above, with M268T, Y287N counted along it
Trace amine-associated receptor 1 (Rattus norvegicus), sequence (Q923Y9 whole entry, the tested form may be a part): as the sequence (Q923Y9 whole entry N287Y, the tested form may be a part) above, with Y287N counted along it
Trace amine-associated receptor 1 (Mus musculus, UniProt Q923Y8), sequence (Q923Y8 whole entry, the tested form may be a part): as the sequence (Q923Y8 whole entry T268M, the tested form may be a part) above, with M268T counted along it
Trace amine-associated receptor 1 (Mus musculus), sequence (Q923Y8 whole entry, the tested form may be a part): as the sequence (Q923Y8 whole entry T268M, the tested form may be a part) above, with M268T counted along it
Trace amine-associated receptor 1 (Rattus norvegicus, UniProt Q923Y9, M268T), sequence (Q923Y9 whole entry M268T, the tested form may be a part): as the sequence (Q923Y9 whole entry N287Y, the tested form may be a part) above, with M268T, Y287N counted along it
Trace amine-associated receptor 1 (Rattus norvegicus), Q923Y9 [M268T], sequence (Q923Y9 whole entry M268T, the tested form may be a part): as the sequence (Q923Y9 whole entry N287Y, the tested form may be a part) above, with M268T, Y287N counted along it
Trace amine-associated receptor 1 (Rattus norvegicus, UniProt Q923Y9), sequence (Q923Y9 whole entry, the tested form may be a part): as the sequence (Q923Y9 whole entry N287Y, the tested form may be a part) above, with Y287N counted along it
Trace amine-associated receptor 1 (Rattus norvegicus), Q923Y9 [D102A], sequence (Q923Y9 whole entry D102A): as the sequence (Q923Y9 whole entry N287Y, the tested form may be a part) above, with D102A, Y287N counted along it

In general, Emax refers to the size of the effect at its maximum, as opposed to the concentration needed. What is called pEC50 is the EC50 on a negative log10 scale, so that one unit is a factor of ten. For the compound `CN[C@H](C)Cc1ccccc1`, the Emax in assay [1] worked out at 91.5%; in [4], 89.6%; in assay [5], 82.5%; in assay [6], 93.3%; in assay [9], 77.6%; in assay [14] it was 96.9%. Also, the result in assay [2] was inactive. Also, the Ratio EC50 in assay [3] and in assay [13] was 10 each time. Also, the pEC50 in [7] is 5.80; in [8], 6.48; in [10], 5.96; in [11], 6.07; in [12] it was 6.90.

In the case of `NCCc1ccc(O)cc1`, the result in [2] and in assay [15] was inactive.

Take `C[C@H](N)Cc1ccccc1` [DEXTROAMPHETAMINE]: the Emax in assay [1] worked out at 98%; in [4], 93%; in assay [5], 102%; in [6], 103%; in assay [9], 93.8%; in assay [14] it was 99.8%. Moreover, the result in assay [2] was inactive. Moreover, the negative-log EC50 (pEC50) in assay [7] is 6.66; in assay [11], 7.07; in assay [12] it was 8.40.

Take `C[C@@H](N)Cc1ccccc1` [LEVAMFETAMINE]: the maximum response (Emax) in assay [1] amounted to 90.5%; in [4], 89.4%; in assay [5], 86.7%; in assay [6] it was 95.8%; in assay [9], 91.6%; in assay [14], 93.6%. Further, the outcome in assay [2] was inactive. Moreover, the values for the negative-log EC50 (pEC50) in assay [7] and in assay [12] were 6.98 and 6.92, respectively.

With `CN[C@@H](C)Cc1ccccc1` [METHAMPHETAMINE], the maximal effect (Emax) is 94% in assay [1]; 92.2% in assay [4]; 94.3% in [5]; 101% in [6]; 94.3% in [9]; 98% in assay [14]. Besides, in assay [2], the outcome was inactive. The Ratio EC50 in [3] and in [13] was 10 each time. Besides, the pEC50 was 6.88 in assay [16]; 5.74 in assay [7]; 6.70 in assay [8]; 5.69 in assay [10]; 6.55 in assay [11]; 7.75 in assay [12].

In the case of `NCCc1ccccc1` [PHENETHYLAMINE], the Emax in assay [17] stood at 95.9%; in assay [18], 97.8%; in [19], 96.4%; in [20], 97.2%; in assay [21], 95%; in assay [22] it was 97.6%. Besides, the outcome in assay [2] was inactive. The pEC50 is 7.39 in [16]; 7.23 in assay [7]; 6.77 in assay [8]; 6.58 in assay [10]; 6.72 in assay [11]; 7.33 in assay [12].

For the origin of these results see ChEMBL document CHEMBL3108730, “Exploring the determinants of trace amine-associated receptor 1's functional selectivity for the stereoisomers of amphetamine and methamphetamine” (J Med Chem, 2014).
